Experimental data taken from US20140079740A1 (priority 2012, published 2014).
Like-named read-outs stand apart in the source and are kept apart here.

Assays:
[1] = cited from earlier work; for T1/2: biological half-life of metabolite
anesthesia and analgesia = settings: cited from earlier work
[2] = Dose linearity test for oral transmucosal S-ketamine formulations
neuropathic pain = settings: cited from earlier work

For NC1(c2ccccc2Cl)CCCCC1=O (stereo not drawn) [Norketamine], the “peak plasma concentrations of norketamine” value ([1]; after oral administration of ketamine) is listed as 200 ng/mL and the T1/2 [1] is listed as 5.32 (1.70) h.

In the case of N[C@]1(c2ccccc2Cl)CCCCC1=O [S-norketamine], the “analgesic and anaesthetic effect relative to S-ketamine” value (anesthesia and analgesia; in vivo) is listed as “five times weaker”.

For CN[C@]1(c2ccccc2Cl)CCCCC1=O [S-Ketamine], the “range of dose linearity” value [2] is given as 10 to 300 mg, the “therapeutic index relative to R-Ketamine” value (anesthesia and analgesia; in vivo) is given as 2.5 times and the “time to maximal pain reduction” value (neuropathic pain; after nasal application) is given as 60 min. The “plasma concentrations of (S)-norketamine” value (neuropathic pain; between 30 and 180 min after intranasal administration) was over 10 ng/mL, the “time to (S)-ketamine plasma-peak” value (neuropathic pain; intranasal) was at most 15 min and the “time to decline of plasma level below 10 ng/ml” value (neuropathic pain; intranasal) was at most 60 min. For the same compound, the “duration of reduction of ongoing neuropathic pain” value (neuropathic pain; low-dose intranasal administration) was 2 to 3 h.

In the case of CNC1(c2ccccc2Cl)CCCCC1=O (racemic) [Ketamine, dl-2-(o-chloro-phenyl)-2(methylamino)cyclohexanone], the duration of anesthesia (anesthesia and analgesia; IM administration) is listed as 12 to 25 min, the time to anesthesia (anesthesia and analgesia; IM route) is listed as 3 to 4 min and the time to anesthesia (anesthesia and analgesia; administered intravenously) is listed as at most 0.5 min. For the same compound, the “time to sensation of dissociation” value (anesthesia and analgesia; administered intravenously) was 15 s, the “ketamine concentration at effective analgesia” value (anesthesia and analgesia; following oral dose) was 40 ng/mL and the Time to onset (anesthesia and analgesia; iv bolus, dosage 2 mg/kg) was 30 to 60 s. The duration of effect (anesthesia and analgesia; iv bolus, dosage 2 mg/kg) was 10 to 15 min, the “plasma levels at which analgesic effects were observed” value (anesthesia and analgesia; sum of S- and R-isomer, intramuscular and intravenous administration) was 100 to 200 ng/mL and the T½ beta ([1]; biological half-life) was 4.98 (1.56) h. The Clearance ([1]; in vivo) was 12 to 17 mL/min/kg, the Metabolites excreted fecally ([1]; in vivo) was 5% and the Metabolites excreted renally ([1]; in vivo) was 90%. The “Urinary excretion of unchanged drug” value ([1]; in vivo) was 3-4%, the “administered dose excreted unchanged in urine” value ([1]; in vivo) was 4% and the alpha phase half-life ([1]; in vivo) was 0.167 to 0.25 h. For the same compound, the “apparent volume of distribution” value ([1]; in vivo) was 3.3 L/kg, the beta phase half-life ([1]; in vivo) was 2 to 3 h and the clearance rate ([1]; in vivo) was 1.3 L/min. The distribution half-life ([1]; in vivo) was 7 to 11 min, the “duration of alpha phase of distribution” value ([1]; in vivo) was “about 45 minutes” and the elimination half-life ([1]; in vivo) was 2 to 3 h. For the same compound, the elimination halftime ([1]; in vivo) was “about 2.5 hours”, the Bioavailability ([1]; intramuscular dose) was 93% and the “time of peak plasma concentrations” value ([1]; intramuscular injection) was 5 to 10 min. For the same compound, the Bioavailability ([1]; intranasal dose) was 25-50%, the “time of peak plasma concentrations” value ([1]; intravenous administration) was at most 1 min and the “time of peak plasma concentrations” value ([1]; oral administration) was 30 min. For the same compound, the Bioavailability ([1]; oral dose) was 20±7%, the Bioavailability ([1]; orally administered, extensive first-pass metabolism) was “approximately 16%” and the “time of peak absorption” value ([1]; rectal, in children) was 45 min. For the same compound, the “oral bioavailability (AUC) relative to intravenous injection” value ([1]; single oral dose of 0.5 mg/kg) was “about 20%”.

For NC1(c2ccccc2Cl)CCC=CC1=O (stereo not drawn) [Dehydronorketamine], the T1/2 [1] is listed as 6.91 (1.71) h.
